This assay deals with T1, SCARB1 (Homo sapiens, UniProt Q8WTV0).
T1 construct: purchased Hölzel Biotech SC1-H82E5
T1 sequence (Q8WTV0 1-552): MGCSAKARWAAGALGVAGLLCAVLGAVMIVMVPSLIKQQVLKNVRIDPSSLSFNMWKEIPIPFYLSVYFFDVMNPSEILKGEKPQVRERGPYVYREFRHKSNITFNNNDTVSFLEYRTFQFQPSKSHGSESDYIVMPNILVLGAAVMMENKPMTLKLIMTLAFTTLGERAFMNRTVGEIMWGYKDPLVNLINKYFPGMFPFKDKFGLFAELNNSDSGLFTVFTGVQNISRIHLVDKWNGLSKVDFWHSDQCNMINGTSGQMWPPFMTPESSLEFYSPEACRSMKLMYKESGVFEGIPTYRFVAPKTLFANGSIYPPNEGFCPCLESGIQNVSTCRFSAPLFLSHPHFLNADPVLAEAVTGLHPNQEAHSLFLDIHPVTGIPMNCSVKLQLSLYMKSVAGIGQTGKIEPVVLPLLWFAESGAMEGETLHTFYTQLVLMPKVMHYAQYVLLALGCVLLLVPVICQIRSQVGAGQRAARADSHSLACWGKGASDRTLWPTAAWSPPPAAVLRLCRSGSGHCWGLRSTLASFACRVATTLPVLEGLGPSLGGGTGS
Kind of assay: Microscale thermophoresis (MST) binding. Conditions: aggregation/precipitation at high compound concentrations. The procedure:
reaction was terminated by addition of 800 μL EtOAc+0.5% AcOH, 300 μL H2O and 100 μL internal standard (13,14-dihydro-15-ketoprostaglandin -d4, 300 pmol/sample, Cayman Chemical, Ann Arbor, USA, Cat# 10010606). Of the organic phase 600 μL was transferred into a fresh Eppendorf tube and the solvent removed in a SpeedVac. The residue was dissolved in 100 μL acetonitrile/ H2O (1:1) and measured with LC-MS/MS. Gradient: Solvent A = H2O + 0.1% formic acid, solvent B = acetonitrile + 0.5% formic acid, flow rate = 0 .4 mL/min, run length 6 min, gradient = 0 min 30% B, 1 min 30% B, 2 min 31.5% B, 2.1 min 95% B, 4 min 95% B, 4.1 min 30% B, 6 min 30% B. MS settings: Capillary = 3.0 kV, sampling cone = […], extraction cone […], source temperature = 100 °C, desolvat ion temperature = 350 °C, cone gas flow = 50.0 L/h, desolvation gas flow = 650.0 L/h, scan time = 0.250 s, inter-scan time = 0.020 s, mass range = 100 -800 Da. Masses of 15 -ketoprostaglandin (349.2 Da, collision energy = 21.0 eV), 13,14 -dihydro-15-ketoprostaglandin (351.2 Da, collision energy = 18.0 eV) and 13,14-dihydro-15-ketoprostaglandin (355.2 Da, collision energy = 10.0 eV) were set for MRM. The areas under the curve (AUC) were used to quantify 15 -keto-PGE2 and 13,14 -dihydro-15-keto-PGE2 levels by determining peak areas in relation to internal standard […]. The experiment was […]
Microscale thermophoresis (MST) was performed as follows: Monolith His -Tag Labeling Kit RED -tris-NTA 2nd Generation (NanoTemper Technologies, Munich, Germany, Cat# MO -L018) was used for KD determination as recommended by the purchaser. Briefly, SCARB1 ( Hölzel Biotech, Cologne, Germany, Cat# SC1-H82E5) concentration (50 nM) was adjusted in assay buffer and labelled by the RED -tris-NTA dye (100 nM). This mixture was added to compound dilution series (c = 1 mM to 30 nM) and measured using Monolith NT.115 (NanoTemper Technologies, Munich, Germany ). The experiment was performed once and analysed with the MO Affinity Analysis software (NanoTemper).
NUDT1 target validation efforts:
Recombinant NUDT1 expression & purification […]
Background: In MST a laser heats a spot of the sample, and binding alters the fluorescence response.

Data on one molecule can be found in PMC12036814 (Angewandte Chemie (International Ed. in English), 2025).

Consider `O=C(O)c1cn(C2CC2)c2cc(N3CCNCC3)c(F)cc2c1=O` [Ciprofloxacin], for which the “binding to SCARB1” value is recorded as “no binding affinity could be determined”.
